Experimental data from patent US20080109040A1, “METHOD OF TREATING ARRHYTHMIAS” (priority 2002, published 2008).
Like-named read-outs stand apart in the source and are kept apart here. Marks after values point to notes of the source that are not given here.

How the values were obtained:
[1] = system: anesthetized dog; assay: QT prolongation and arrhythmia induction in anesthetized dog with AV block and phenylephrine challenge; settings: for Arrhythmia occurrence: individual dogs; for Mean ERP LV / Mean ERP RY: sot 8 + 4
Description: Dogs were pretreated with Atravet (0.07 mg/kg sc) and then 15 minutes later anesthetized with ketamine (5.3 mg/kg iv) and valium (0.25 mg/kg iv) followed by isoflurane (1-2%), intubated and subjected to mechanical ventilation. They were then subjected to AV block with radiofrequency ablation. A median sternotomy was performed and catheters were inserted into a femoral artery for blood pressure (BP) recording and into both femoral veins for infusion of test drugs. Bipolar electrodes were inserted into both ventricles for programmed stimulation determination of refractory periods (extrastimulus technique), as well as for evaluation of QT interval and QRS duration at various controlled basic cycle lengths (BCLs). TdP was induced by challenges of phenylephrine, which were given as bolus intravenous doses of 10, 20, 30, 40 and 50 μg/kg. After each dose, the ECG was monitored continuously to detect arrhythmias. […] Test drug effects were evaluated as per protocols below.
Data are presented as the mean ±S.E.M. Statistical comparisons were made with Student's t test. A 2-tailed probability<0.05 was taken to indicate statistical significance. In data tables, * denotes P<0.05, **P<0.01.
Group 2 (6 dogs): Five dogs received ranolazine as a 0.5 mg/kg iv load followed by a first, a second and a third continuous iv infusion of 1.0, 3.0 and 15 mg/kg/hr, respectively. One dog received ranolazine as a 1.5 mg/kg iv load followed by infusions of 15 and 30 mg/kg/hr. […] The phenylephrine challenges were then given, with all doses given at each drug infusion rate, and any arrhythmias monitor.

[2] = system: guinea pig ventricular myocytes; assay: Action potential duration, EADs and triggered activity in guinea pig ventricular myocytes
Description: Single ventricular myocytes were isolated from the hearts of adult, male guinea pigs (Harlan). In brief, the hearts were perfused with warm (35° C.) and oxygenated solutions in the following order: 1) Tyrode solution containing (in mmol/L) 140 NaCl, 4.6 KCl, 1.8 CaCl2, 1.1 MgSO4, 10 glucose and 5 HEPES, pH 7.4, for 5 minutes; 2) Ca^2+-free solution containing (in mmol/L) 100 NaCl, 30 KCl, 2 MgSO4, 10 glucose, 5 HEPES, 20 taurine, and 5 pyruvate, pH 7.4, for 5 minutes; and 3) Ca^2+-free solution containing sollagenase (120 units/ml) and albumin (2 mg/ml), for 20 minutes. At the end of the perfusion, the ventricles were removed, minced, and gently shaken for 10 minutes in solution #3. Isolated cells were harvested from the cell suspension.
Myocytes were placed into a recording chamber and superfused with Tyrode solution at 35° C. Drugs were applied via the superfusate. Action potentials were measured using glass microelectrodes filled with a solution containing (in mmol/L) 120 K-aspartate, 20 KCl, 1 MgCl2, 4 Na2ATP, 0.1 Na3GTP, 10 glucose, 1 EGTA and 10 HEPES (pH 7.2). Microelectrode resistance was 1-3 MΩ. An Axopatch-200 amplifier, a DigiData-1200A interface and pCLAMP6 software were used to perform electrophysiological measurements. Action potentials were induced by 5-ms depolarizing pulses applied at various frequencies as indicated. The duration of action potential was measured at 50% (APD50) and 90% (APD90) repolarization.
1) Ventricular myocytes were electrically stimulated at a frequency of 0.5, 1 or 2 Hz. Each myocyte was treated with 3, 10 and 30 μmol/L ranolazine. The effect of ranolazine on action potential duration at each pacing frequency was determined from 4 myocytes.
2) Action potentials were elicited at a frequency of 0.25 Hz, and the effect of ranolazine (10 μmol/L) on action potential duration was examined in the presence of 5 μmol/L quinidine. Experiments were performed on 4 myocytes.
Following the procedures and protocols of Example 21, guinea pig ventricular myocytes were electrically stimulated in the presence of ranolazine either alone or in the presence of ATX II [a sea anemone toxin known to mimic LQT3 syndrome by slowing Na^+-channel inactivation from the open state and thereby increasing the peak and late Na^+ current (INa) of cardiomyocytes]. ATXII is known to induce early afterdepolarizations (EADs) and triggered activity and ventricular tachycardia.
Action potentials were recorded using the whole-cell patch-electrode technique. Ventricular monophasic action potentials and electrograms were recorded from isolated hearts.
The ventricular APD of guinea pigs isolated myocytes and hearts was measured, respectively, at 50% (APD50) and 90% (MAPD90) repolarization.

[3] = system: guinea pig isolated heart; assay: K-H buffer perfused guinea pig isolated heart: MAP duration, EADs and VT
Source text: To study the effect of ranolazine on ATXII induced MAP (monophasic action potential) duration prolongation, EADs and ventricular tachyarrhythmia (VT), the K—H buffer perfused guinea pig isolated heart model was used.
Multiple EADs and sustained depolarizations were frequently observed.

In the case of `CC(C)NCC(O)c1ccc(NS(C)(=O)=O)cc1` (racemic) [sotalol, reference compound], the Arrhythmia occurrence ([1]; Sot 8 + 4 plus phenylephrine 10 μg/kg, — = none) is reported as “death”, the Arrhythmia occurrence ([1]; Sot 8 + 4 plus phenylephrine 30 μg/kg) is reported as “death” and the Arrhythmia occurrence ([1]; Sot 8 + 4 plus phenylephrine 40 μg/kg) is reported as “tdp VF death”. The Arrhythmia occurrence ([1]; Sot 8 + 4 plus phenylephrine 50 μg/kg) was “death”, the “Effect on QRS duration” value ([1]; dog, in vivo) was “did not affect” and the “Mean ERP LV” value ([1]; BCL 300) was 201.25 ± 18.75 ms. The “Mean ERP RY” value ([1]; BCL 300) was 181.33 ± 8.21** ms, the “Mean ERP LV” value ([1]; BCL 400) was 226.25 ± 21.25 ms and the “Mean ERP RY” value ([1]; BCL 400) was 195.67 ± 7.53** ms. The “Mean ERP LV” value ([1]; BCL 600) was 262.50 ± 27.5* ms, the “Mean ERP RY” value ([1]; BCL 600) was 223.50 ± 9.07** ms and the “Mean ERP LV” value ([1]; BCL 1000) was 286.25 ± 16.25* ms. The “Mean ERP RY” value ([1]; BCL 1000) was 255.50 ± 9.56** ms and the “Death from torsade de pointes degenerating to ventricular fibrillation” value ([1]; sotalol infusion and a phenylephrine bolus) was “All the dogs eventually died”.
For `CCS(=O)(=O)N(C)[C@H]1c2cc(C#N)ccc2OC(C)(C)[C@@H]1O` [293B, reference compound], the “Induction of EADs” value [2] was “induced EADs in the presence, but not in the absence, of ATX-II”, the “Increase of APD50” value ([2]; 293B 30 μmol/L, absence of ATX-II) was 40±7% and the “Increase of APD50” value ([2]; 293B 30 μmol/L, presence of ATX-II) was 202±59%. The “Increase of MAPD90” value ([3]; 293B 1 μmol/L alone) was 6.3±0.2% and the “Increase of MAPD90” value ([3]; 293B applied with ATX-II) was 31.6±0.1%.
For `Cc1cccc(CCN2CCC(C(=O)c3ccc(NS(C)(=O)=O)cc3)CC2)n1` [E-4031, reference compound], the “Increase of APD50” value ([2]; E-4031 1 μmol/L, absence of ATX-II) was 11±2%, the “Increase of APD50” value ([2]; E-4031 1 μmol/L, presence of ATX-II) was 104±41% and the “Increase of MAPD90” value ([3]; E-4031 1 μmol/L alone) was 30.1±0.1%. The “Increase of MAPD90” value ([3]; E-4031 applied with ATX-II) was 127.1±0.4%.
In the case of `C=C[C@H]1C[N@@]2CC[C@H]1C[C@@H]2[C@@H](O)c1ccnc2ccc(OC)cc12` [quinidine, reference compound], the “Effect on duration of action potential” value ([2]; quinidine 5 μmol/L, 0.25 Hz) is reported as “increased the duration of action potential”.
In the case of “ATXII: a sea anemone toxin known to mimic LQT3 syndrome by slowing Na+-channel inactivation from the open state [reference compound]”, the “Increase of APD50” value ([2]; ATX-II 3 nmol/L alone) is reported as 6±2%, the “Induction of EADs” value ([2]; ATX-II 10-20 nmol/L) is reported as “induced EADs in all cells” and the “APD50 in the presence of ATX-II” value ([2]; ATX-II 10-20 nmol/L, n=24) is reported as 1,148±49 ms. For the same molecule, the “Induction of EADs” value ([2]; ATXII 10-40 nmol/L) was “induced EADs in all cells”, the “APD50 in the presence of ATXII” value ([2]; ATXII 10-40 nmol/L, n=20) was 1,154±61 ms and the “Increase of MAPD90” value ([3]; ATX-II 7 nmol/L alone) was 32±0.1%. The “Isolated hearts with EADs and (polymorphic) VT” value ([3]; ATXII 10-20 nM) was 10/14, the “Prolongation of MAPD90” value ([3]; ATXII 10-20 nM, 4 hearts without rapid ventricular arrhythmia) was 6% and the “Isolated hearts with EADs and (polymorphic) VT” value ([3]; ATXII 10-20 nM, listed as ATX-II) was 10 of 14.
